{"source": "paper PMC9518248", "about": "“Inhibition of Toxoplasma gondii by 1,2,4-triazole-based compounds: marked improvement in selectivity relative to the standard therapy pyrimethamine and sulfadiazine” (Journal of Enzyme Inhibition and Medicinal Chemistry, 2022)", "key": {"T. gondii RH-GFP": {"test_system": "T. gondii RH-GFP", "assay": "Antiparasitic assay: T. gondii RH-GFP proliferation in Hs27 cells", "format": "cell-based, Toxoplasma gondii"}, "[1]": {"test_system": "Tyrosinase (TYR) from mushrooms", "assay": "Inhibition of tyrosinase activity assay", "format": "biochemical", "conditions": "for Diphenolase activity: substrate DOPA; for Monophenolase activity: substrate L-tyrosine", "protocol": "Tyrosinase (TYR) from mushrooms ([…], Sigma) was used in our study. We analysed inhibition of 20 b on both monophenolase and diphenolase activity of TYR. All compound dilutions, both substrate L-tyrosine (Tyr) and levodopa (DOPA), and TYR were prepared in 50 mM phosphate buffer (pH 6.5). […] Firstly, the substrate and compound were added to a 96-well flat-bottom plate (Nunc MaxiSorp^TM, Roskilde, Denmark), next TYR was added and the initial absorbance (A0) was measured spectrophotometrically at 492 nm. Then, the plate was incubated at 25 °C for 30 min. After incubation, the amount of dopachrome produced in the reaction mixture was determined spectrophotometrically at 492 nm (A30) using the multi-mode microplate reader SpectraMax® i3. As 100% TYR activity samples without addition of compound, were used. The average results from three experiments are shown."}, "[2]": {"assay": "Cytotoxicity against glioblastoma cells (MTT)", "format": "cell-based, human", "conditions": "human, T98G glioblastoma cells, MTT, read-out: Viability of T98G cells (% of control ± SD)", "protocol": "(§1) Cytotoxic effect of 20b was evaluated using glioblastoma (T98G) cells obtained from the American Type Culture Collection (Manassas, VA). Cells were cultured in Dulbecco’s Modified Eagle’s Medium (DMEM-high glucose) (Sigma Aldrich, St. Louis, MO), supplemented with 10% heat inactivated FBS, penicillin (100 U/mL), and streptomycin (100 μg/mL) (Sigma Aldrich, St. Louis, MO). Cells were maintained in a humidified atmosphere of 5% CO2 and 95% air at 37 °C. Stock solutions of the investigated compounds (20b and temozolomide) were prepared by dissolving solid substances in a sterile DMSO. T98G glioblastoma cells were seeded into 96-well sterile plates at a density of 1 × 10^5cells/mL. After 24 h of incubation, the medium was removed from each well and then cells were incubated for the next 24 h with different concentrations of the investigated compounds (10, 25, 35, 50, and 100 µg/mL) in the medium containing 2% FBS. Viability of T98G cells was evaluated using MTT assay, whose principle is based on the conversion of 3–(4,5-dimethylthiazol-2-yl)-2,5-diphenyltetrazolium bromide (MTT) into dark-blue formazan crystals. In brief, after 24 h incubation of cells with varying concentrations of the tested compounds, culture medium was removed from the plate. Cells were washed with PBS, and then 100 µL of medium containing 10% MTT solution (5 mg/mL) was added to each well. After 3 h incubation, 100 µL (per well) of 10% SDS buffer solution was added to solubilise formazan crystals. After overnight incubation the absorbance was measured at 570 nm using a microplate reader (Epoch, BioTek Instruments, Winooski, VT). Experiments were repeated three times, and the measurements in each experiment were run in quadruplicate. Viability of the investigated cells was expressed as % of the viability of the untreated cells."}, "[3]": {"test_system": "human glioblastoma T98G cells", "assay": "Cytotoxicity against glioblastoma cells (MTT)", "format": "cell-based", "conditions": "24 h", "protocol": "as §1"}, "[4]": {"test_system": "T. gondii tachyzoites of the RH-GFP strain", "assay": "Intracellular Toxoplasma tachyzoites proliferation assay (Assay B)", "format": "cell-based, Toxoplasma gondii", "conditions": "3 h infection, then 24 h treatment at 35.35, 70.70, 176.75 μg/mL; dose-dependent"}, "[5]": {"assay": "Haemolytic activity determination", "format": "cell-based", "conditions": "2% suspension of human red blood cells, human RBCs, 37 °C, 30 min, read-out: Haemolysis (%)", "protocol": "(§2) Human red blood cells (RBCs) concentrate was obtained from the Regional Blood Donation and Transfusion Centre (Lublin, Poland). RBCs concentrate (5 mL) was washed three times with sterile PBS and centrifuged at 500 g for 3 min. […] The amount of free haemoglobin in supernatants was measured spectrophotometrically at 405 nm. Negative and positive controls were performed by incubating RBCs with sterile PBS and 0.1% Triton-X, respectively. Each experiment was run in triplicate."}, "[6]": {"test_system": "Human red blood cells (RBCs)", "assay": "Haemolytic activity determination", "format": "cell-based", "conditions": "at the concentration equal to its IC50Tg", "protocol": "as §2"}, "PAMPA-BBB assay": {"assay": "PAMPA-BBB assay", "format": "in vitro ADME", "protocol": "BBB permeability of 20b was investigated using a parallel artificial membrane permeability assay (PAMPA) method. The PAMPA system, consisted of a 96-well microfilter plate, was divided into two chambers: a donor at the bottom and an acceptor at the top, separated by a 120-μm-thick microfilter disc coated with BBB lipid solution (Pion, Inc., Billerica, MA). The solutions of 20b were prepared in dimethylsulphoxide (DMSO) at 4 mg/mL concentration and then diluted with Prisma buffer (pH = 7.4) to obtain the donor drug solution with the final nominal concentration of 20 μg/mL. Then, 180 μL of the donor solution were added to the donor wells. Subsequently, each filter membrane of the top plate was coated with 5 μL BBB-1 lipid solution (Pion Inc.) and the acceptor well was filled with 200 μL of Brain Sink Buffer (BSB). The acceptor plate and the donor plate were sandwiched together and incubated at 37 °C for 180 min.\nThe permeability coefficient value (Pe) was calculated by using the following equation: Pe=−ln(1−CA/Cequilibrium)/S×(1/VD+1/VA)×t where VD – donor volume, VA – acceptor volume, Cequilibrium – equilibrium concentration, Cequilibrium=CD×VD+CA×VA/VD+VA, CD – donor concentration, CA – acceptor concentration, S – membrane area, and t – incubation time (in seconds)."}, "Human Hs27 cells": {"test_system": "Human Hs27 cells", "assay": "Genotoxic activity, single cell gel electrophoresis (comet assay)", "format": "cell-based", "conditions": "24 h, concentration equal to IC50Tg", "method": "All the procedures performed were in line with the manufacturer’s protocol. Human Hs27 cells, previously exposed for 24 h to the compound, were combined with liquefied low melting Agarose at 37 °C and transferred onto the OxiSelect comet slides. After storing for 15 min at 4 °C, the slides were immersed in a pre-chilled Lysis Buffer (for 45 min at 4 °C) and Alkaline Solution (for 30 min at 4 °C). Afterwards, the Alkaline Solution was replaced with pre-chilled TBE electrophoresis solution. After immersing for 5 min, the slides were put into the horizontal electrophoresis chamber and covered with TBE electrophoresis buffer. The electrophoresis was run for 15 min at 1 volt/cm. Finally, DNA was stained with Vista Green DNA Dye for 15 min at room temperature and observed under fluorescence microscope (Olympus BX63, Tokyo, Japan). The images of cells were captured using XM10 digital camera (Olympus). The DNA damage was measured quantitatively using OpenComet software. At least 50 randomly selected images were used in each analysis."}, "[7]": {"test_system": "T. gondii tachyzoites of the RH-GFP strain", "assay": "Toxoplasma tachyzoites invasion assay (Assay A)", "conditions": "3 h pre-treatment at 35.35, 70.70 and 176.75 μg/mL, then 24 h treatment-free", "method": "The Hs27 cells were cultured on Lab-Tek™ 4-well Chamber Slides (Nunc) (5 × 10^4 cells/500 μL per well).\nThen, the cells were washed to remove extracellular parasites and parasite culture medium (without any compounds) was added for 24 h.\nIn both assays as the control, Hs27 cells were infected, but not treated. After subsequent 24 h of incubation (Assay A and B), the slides were washed with sterile PBS, fixed with formaldehyde solution (252549, Sigma-Aldrich), 3.7% in PBS for 20 min, and stained with DAPI for 10 min (1 mg/mL, ThermoFisher Scientific, Waltham, MA). Microscopic analysis of 100 cells in turn, comprised of counting the infected cell ratio and tachyzoites per each parasitophorous vacuoles of infected cell, was performed using a fluorescent microscope (Axio Scope.A1, Carl Zeiss, Germany) at a magnification ×1000. For image processing ZEISS ZEN Microscope Software version 3.1 (Oberkochen, Germany) was used. Three independent experiments on triplicate chamber slides using the same conditions for both assays were performed."}, "[8]": {"conditions": "1 µM, % of activity without compound"}}, "note": "“Also recorded” adds a separate entry of the source."}
{"smiles": "COc1ccc(-n2c(-c3[nH]cnc3C)n[nH]c2=S)cc1", "note": "[20b]", "values": [{"measurement": "selectivity (SI) relative to PYR", "setting": "T. gondii RH-GFP; SI of compound vs SI of PYR", "value": 11, "unit": "fold"}, {"measurement": "selectivity (SI) relative to SDZ", "setting": "T. gondii RH-GFP; SI of compound vs SI of SDZ", "value": 160, "unit": "fold"}, {"measurement": "selectivity (SI) relative to TRI", "setting": "T. gondii RH-GFP; SI of compound vs SI of TRI", "value": 4, "unit": "fold"}, {"measurement": "IC50", "setting": "T. gondii RH-GFP; Toxoplasma gondii, T. gondii RH-GFP in Hs27 cells, 96 h, values above highest tested concentration extrapolated, read-out: IC50Tg", "value": 35.4, "unit": "µg/mL"}, {"measurement": "SI", "setting": "T. gondii RH-GFP; selectivity index, CC30 (L929)/IC50Tg", "value": 70.72}, {"measurement": "Diphenolase activity", "setting": "[1]; [8]", "value": "94.6 ± 3.3", "unit": "%"}, {"measurement": "Monophenolase activity", "setting": "[1]; [8]", "value": "101.76 ± 4.69", "unit": "%"}, {"measurement": "Diphenolase activity", "setting": "[1]; 10 µM", "value": "99.6 ± 0.7", "unit": "%"}, {"measurement": "Monophenolase activity", "setting": "[1]; 10 µM", "value": "99.01 ± 1.79", "unit": "%"}, {"measurement": "Diphenolase activity", "setting": "[1]; 25 µM", "value": "92.7 ± 1.7", "unit": "%"}, {"measurement": "Monophenolase activity", "setting": "[1]; 25 µM", "value": "92.97 ± 2.54", "unit": "%"}, {"measurement": "Diphenolase activity", "setting": "[1]; 50 µM", "value": "91.2 ± 1.2", "unit": "%"}, {"measurement": "Monophenolase activity", "setting": "[1]; 50 µM", "value": "90.66 ± 4.29", "unit": "%"}, {"measurement": "Diphenolase activity", "setting": "[1]; 100 µM", "value": "75.3 ± 7.8", "unit": "%"}, {"measurement": "Monophenolase activity", "setting": "[1]; 100 µM", "value": "70.81 ± 2.18", "unit": "%"}, {"measurement": "Diphenolase activity", "setting": "[1]; 200 µM", "value": "52.7 ± 6.8", "unit": "%"}, {"measurement": "Monophenolase activity", "setting": "[1]; 200 µM", "value": "46.79 ± 4.31", "unit": "%"}, {"measurement": "Diphenolase activity", "setting": "[1]; 400 µM", "value": "25.7 ± 12.8", "unit": "%"}, {"measurement": "Monophenolase activity", "setting": "[1]; 400 µM", "value": "23.09 ± 8.35", "unit": "%"}, {"measurement": "inhibitory effect on tyrosinase activity", "setting": "[1]; at concentrations below 50 µM", "value": "< 10", "unit": "%"}, {"measurement": "viability at 24 h, 10 µg/mL", "setting": "[2]; 10 µg/mL", "value": "94.2 ± 2.06", "unit": "%"}, {"measurement": "viability at 24 h, 25 µg/mL", "setting": "[2]; 25 µg/mL", "value": "92 ± 3.27", "unit": "%"}, {"measurement": "viability at 24 h, 35 µg/mL", "setting": "[2]; 35 µg/mL", "value": "87.15 ± 0.55", "unit": "%"}, {"measurement": "viability at 24 h, 50 µg/mL", "setting": "[2]; 50 µg/mL", "value": "82.1 ± 1.73", "unit": "%"}, {"measurement": "viability at 24 h, 100 µg/mL", "setting": "[2]; 100 µg/mL", "value": "76.26 ± 0.74", "unit": "%"}, {"measurement": "reduction of T98G cell viability", "setting": "[3]; 10 µg/mL", "value": "~6", "unit": "%"}, {"measurement": "reduction of T98G cell viability", "setting": "[3]; 100 µg/mL", "value": "~24", "unit": "%"}, {"measurement": "intracellular proliferation: size of PV and number of tachyzoites per PV", "setting": "[4]", "value": "significant reduction in both size of the PV and number of intra vacuolar tachyzoites"}, {"measurement": "hemolysis at 30 min, 5 µg/mL", "setting": "[5]; 5 µg/mL", "value": "0.038 ± 0.007", "unit": "%"}, {"measurement": "hemolysis at 30 min, 10 µg/mL", "setting": "[5]; 10 µg/mL", "value": "0.104 ± 0.042", "unit": "%"}, {"measurement": "hemolysis at 30 min, 35 µg/mL", "setting": "[5]; 35 µg/mL", "value": "0.183 ± 0.086", "unit": "%"}, {"measurement": "haemolytic activity", "setting": "[6]", "value": "no specific haemolytic activity; also recorded: no specific haemolytic changes"}, {"measurement": "BBB permeation classification", "setting": "PAMPA-BBB assay; CNS+ if Pe > 5.19, CNS− if Pe < 2.07 (× 10^−6 cm·s^−1)", "value": "centrally active"}, {"measurement": "Papp at 180 min, 20 μg/mL", "setting": "PAMPA-BBB assay; pH 7.4, 37 °C, 180 min, read-out: permeability coefficient Pe", "value": "34.9 ± 2.73", "unit": "×10⁻⁶ cm/s"}, {"measurement": "% DNA in comet tail", "setting": "Human Hs27 cells", "value": "3.38 ± 0.45", "unit": "%"}, {"measurement": "genotoxic effect (DNA damage)", "setting": "Human Hs27 cells", "value": "no induction of DNA damage; also recorded: no genotoxic effect"}, {"measurement": "parasite invasion: percentage of infected cells", "setting": "[7]", "value": "did not cause significant reductions in percentage of infected cells"}]}
